Consider 5 molecules from US20260022143A1, “Cyclic Peptide Inhibitors of IL-23” (JANSSEN PHARMACEUTICA NV, priority 2022, published 2026).

The structures appear in SMILES notation. Starred links: 1 amine or outer side, 2 acyl side, 3 side chain; linkers in the order of their positions; H or OH if unused. Positions of bridges follow the written chain, without caps; N, C: chain ends. Non-standard residues stand in square brackets, D forms with d. Residues, ends and D or L forms follow the SMILES beside them. *: point of attachment. X13 = C[N+]1(Cc2cn(-c3ccc(C[C@H](N[*:1])C(=O)[*:2])cc3)nn2)CCOCC1; Me3N+(CH2)2O(CH2)2O(CH2)2CO = C[N+](C)(C)CCOCCOCCC(=O)*; Trp(7-Me) = Cc1cccc2c(C[C@H](N)C(=O)O)c[nH]c12; Abu(4-yl) = O=C([C@H](CC[*:3])N[*:1])[*:2]; CH2CH2OCH2CH2NMe3+ = C[N+](C)(C)CCOCC*; 2Nal = N[C@@H](Cc1ccc2ccccc2c1)C(=O)O; AEF = NCCOc1ccc(C[C@H](N)C(=O)O)cc1; 3Pal = N[C@@H](Cc1cccnc1)C(=O)O; Lys(Me) = CNCCCC[C@H](N)C(=O)O; Pen = CC(C)(S)[C@H](N)C(=O)O; αMeC = C[C@](N)(CS)C(=O)O; Ac6c = NC1(C(=O)O)CCCCC1; Thp = NC1(C(=O)O)CCOCC1; Sar = CNCC(=O)O

For the first data set, the target named is T1, IL-23R (Homo sapiens, UniProt Q5VWK5).
T1 construct: host or cells: HEK293
T1 sequence (Q5VWK5 24-629): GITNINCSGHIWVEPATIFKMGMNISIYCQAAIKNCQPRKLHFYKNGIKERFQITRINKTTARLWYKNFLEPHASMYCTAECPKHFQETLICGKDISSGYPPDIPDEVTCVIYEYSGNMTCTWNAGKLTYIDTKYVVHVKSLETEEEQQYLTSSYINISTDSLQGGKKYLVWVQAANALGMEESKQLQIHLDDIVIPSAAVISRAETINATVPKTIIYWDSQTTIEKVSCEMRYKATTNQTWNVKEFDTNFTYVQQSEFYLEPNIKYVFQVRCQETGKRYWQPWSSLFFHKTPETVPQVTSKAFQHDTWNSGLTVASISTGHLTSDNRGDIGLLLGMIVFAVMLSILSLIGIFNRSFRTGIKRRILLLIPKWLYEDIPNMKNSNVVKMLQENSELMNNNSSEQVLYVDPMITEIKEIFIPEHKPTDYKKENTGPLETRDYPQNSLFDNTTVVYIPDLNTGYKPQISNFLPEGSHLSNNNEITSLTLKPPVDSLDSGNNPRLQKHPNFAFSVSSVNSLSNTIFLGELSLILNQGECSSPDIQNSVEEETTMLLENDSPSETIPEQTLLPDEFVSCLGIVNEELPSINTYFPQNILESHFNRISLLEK
The data set can be described thus: IL23R Reporter Assay. It is filed as cell-based. The settings on record: HEK293 cells containing IL-23R, IL-12RP1 and STAT-inducible firefly luciferase reporter; 10 ng/mL IL-23 (EC90); 5 h at 37° C.; read-out: IL23R Reporter Assay.
For the molecule `CC(=O)NCCCC[C@@H]1NC(=O)[C@H](Cc2c[nH]c3c(C)cccc23)NC(=O)[C@H]([C@@H](C)O)NC(=O)[C@H](CC(N)=O)NC(=O)[C@@H](NC(C)=O)C(C)(C)SSC(C)(C)[C@@H](C(=O)N[C@@H](Cc2ccc(-n3cc(C[N+]4(C)CCOCC4)nn3)cc2)C(=O)N[C@@H](Cc2ccc3ccccc3c2)C(=O)NC2(C(=O)N[C@@H](CCC(=O)O)C(=O)N[C@@H](CC(N)=O)C(=O)N[C@@H](Cc3cccnc3)C(=O)N(C)CC(N)=O)CCOCC2)NC1=O` [compound 459] (Ac-[Pen]NT[Trp(7-Me)]K(Ac)[Pen][X13][2Nal][Thp]EN[3Pal][Sar]-NH2; disulfide 1-6 (inferred)), the IC50 is 1.8 nM.
`CC(=O)N(C)CCCC[C@@H]1NC(=O)[C@H](Cc2c[nH]c3c(C)cccc23)NC(=O)[C@H]([C@@H](C)O)NC(=O)[C@H](CC(=O)N(C)C)NC(=O)[C@@H](NC(=O)CCOCCOCC[N+](C)(C)C)C(C)(C)SSC(C)(C)[C@@H](C(=O)N[C@@H](Cc2ccc(OCCOCC[N+](C)(C)C)cc2)C(=O)N[C@@H](Cc2ccc3ccccc3c2)C(=O)NC2(C(=O)N[C@@H](CCCCN(C)C(C)=O)C(=O)N[C@@H](CC(N)=O)C(=O)N[C@@H](Cc3cccnc3)C(=O)N(C)CC(=O)N(C)C)CCOCC2)NC1=O` [compound 199, cPEG3aCO-Pen(3)-N(N(Me)2)-T-7MeW-K(NMeAc)-Pen(3)-APEG2F-2Nal-THP-K(NMeAc)-N-3Pya-Sar-CON(Me)2] ({Me3N+(CH2)2O(CH2)2O(CH2)2CO}-[Pen]D(NMe2)T[Trp(7-Me)][Lys(Me)](Ac)[Pen]Y(CH2CH2OCH2CH2NMe3+)[2Nal][Thp][Lys(Me)](Ac)N[3Pal][Sar]-NMe2; disulfide 1-6): the IC50 amounted to 3 nM.
Still for that read-out and setting: under `CC(=O)NCCCC[C@@H]1NC(=O)[C@H](Cc2c[nH]c3ccccc23)NC(=O)[C@H]([C@@H](C)O)NC(=O)[C@H](CC(N)=O)NC(=O)[C@@H](NC(=O)[C@@H](CCCNC(=N)N)NC(=O)CCOCCOCC[N+](C)(C)C)CCSC[C@@](C)(C(=O)N[C@@H](Cc2ccc(OCCN)cc2)C(=O)N[C@@H](Cc2ccc3ccccc3c2)C(=O)NC2(C(=O)N[C@@H](CCCCNC(C)=O)C(=O)N[C@@H](CC(N)=O)C(=O)N[C@@H](Cc3cccnc3)C(=O)N(C)CC(N)=O)CCCCC2)NC1=O` [compound 548, cPEG3aCO-r-Abu(1)-N-T-W-K(Ac)-aMeC(1)-AEF-2Nal-THP-K(Ac-N-3Pya-Sar-CONH2] ({Me3N+(CH2)2O(CH2)2O(CH2)2CO}-[dR][Abu(4-yl)]NTWK(Ac)[αMeC][AEF][2Nal][Ac6c]K(Ac)N[3Pal][Sar]-NH2; thioether 2-7) stands 6.4 nM; under `CC(=O)NCCCC[C@@H]1NC(=O)[C@H](Cc2c[nH]c3c(C)cccc23)NC(=O)[C@H]([C@@H](C)O)NC(=O)[C@H](CC(N)=O)NC(=O)[C@@H](NC(C)=O)C(C)(C)SSC(C)(C)[C@@H](C(=O)N[C@@H](Cc2ccc(OCCN)cc2)C(=O)N[C@@H](Cc2ccc3ccccc3c2)C(=O)NC2(C(=O)N[C@@H](CCC(=O)O)C(=O)N[C@@H](CC(N)=O)C(=O)N[C@@H](Cc3cccnc3)C(=O)N(C)CC(=O)N(C)C)CCOCC2)NC1=O` [compound 276] (Ac-[Pen]NT[Trp(7-Me)]K(Ac)[Pen][AEF][2Nal][Thp]EN[3Pal][Sar]-NMe2; disulfide 1-6 (inferred)), 55 nM; under `CC(=O)N[C@@H]1C(=O)N[C@@H](CC(=O)N(C)C)C(=O)N[C@@H]([C@@H](C)O)C(=O)N[C@@H](Cc2c[nH]c3c(C)cccc23)C(=O)N[C@@H](COCCOCC[N+](C)(C)C)C(=O)N[C@H](C(=O)N[C@@H](Cc2ccc(OCCOCCOCC[N+](C)(C)C)cc2)C(=O)N[C@@H](Cc2ccc3ccccc3c2)C(=O)NC2(C(=O)N[C@@H](CCCCN(C)C(C)=O)C(=O)N[C@@H](CC(N)=O)C(=O)N[C@@H](Cc3cccnc3)C(=O)N(C)CC(=O)N(C)C)CCOCC2)C(C)(C)SSC1(C)C` (relative stereo) [compound 267, MeCO-Pen(3)-N(N(Me)2)-T-7MeW-APEG2Ser(S*)-Pen(3)-APEG3F-2Nal-THP-K(NMeAc)-N-3Pya-Sar-CON(Me)2], 4.2 nM.

Tested on in a further data set: not listed separately
Nature of the data set: Exposed Polar Surface Area (EPSA). It is filed as physicochemical. The settings on record: SFC on Chirex 3014 column; sample 1 mM DMSO stock; read-out: EPSA. In short, it runs like this: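 Polarity descriptor in Å² derived from retention time using 8 calibration standards re-run every 20 compounds. Duplicate injections of 1 mM DMSO stock; linear 5–60% modifier gradient (20 mM ammonium formate in MeOH) with CO2 at 4 mL/min, 35 °C, on a Chirex 3014 column.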
Consider `CC(=O)NCCCC[C@@H]1NC(=O)[C@H](Cc2c[nH]c3c(C)cccc23)NC(=O)[C@H]([C@@H](C)O)NC(=O)[C@H](CC(N)=O)NC(=O)[C@@H](NC(C)=O)C(C)(C)SSC(C)(C)[C@@H](C(=O)N[C@@H](Cc2ccc(-n3cc(C[N+]4(C)CCOCC4)nn3)cc2)C(=O)N[C@@H](Cc2ccc3ccccc3c2)C(=O)NC2(C(=O)N[C@@H](CCC(=O)O)C(=O)N[C@@H](CC(N)=O)C(=O)N[C@@H](Cc3cccnc3)C(=O)N(C)CC(N)=O)CCOCC2)NC1=O` [compound 459] (Ac-[Pen]NT[Trp(7-Me)]K(Ac)[Pen][X13][2Nal][Thp]EN[3Pal][Sar]-NH2; disulfide 1-6 (inferred)), for which the EPSA amounted to 178 A^2.
Still for that read-out and setting: under `CC(=O)N(C)CCCC[C@@H]1NC(=O)[C@H](Cc2c[nH]c3c(C)cccc23)NC(=O)[C@H]([C@@H](C)O)NC(=O)[C@H](CC(=O)N(C)C)NC(=O)[C@@H](NC(=O)CCOCCOCC[N+](C)(C)C)C(C)(C)SSC(C)(C)[C@@H](C(=O)N[C@@H](Cc2ccc(OCCOCC[N+](C)(C)C)cc2)C(=O)N[C@@H](Cc2ccc3ccccc3c2)C(=O)NC2(C(=O)N[C@@H](CCCCN(C)C(C)=O)C(=O)N[C@@H](CC(N)=O)C(=O)N[C@@H](Cc3cccnc3)C(=O)N(C)CC(=O)N(C)C)CCOCC2)NC1=O` [compound 199, cPEG3aCO-Pen(3)-N(N(Me)2)-T-7MeW-K(NMeAc)-Pen(3)-APEG2F-2Nal-THP-K(NMeAc)-N-3Pya-Sar-CON(Me)2] ({Me3N+(CH2)2O(CH2)2O(CH2)2CO}-[Pen]D(NMe2)T[Trp(7-Me)][Lys(Me)](Ac)[Pen]Y(CH2CH2OCH2CH2NMe3+)[2Nal][Thp][Lys(Me)](Ac)N[3Pal][Sar]-NMe2; disulfide 1-6) stands 141 A^2.
